From patent US20230339991A1, “HYPOXIA-ACTIVATED DNA ALKYLATING AGENT AND MEDICAL USE THEREOF” (ASCENTAWITS PHARMACEUTICALS, LTD., priority 2020, published 2023)
Values joined by “and” are separate entries in the source; they are usually repeats but may differ in a detail not shown here. Identical values can stand only once.

Tests used:
[1] = test system: human liver cancer HepG2 subcutaneous xenograft; assay: Human liver cancer HepG2 subcutaneous xenograft model; assay type: in vivo, BALB/c nude mice
From the text: BALB/c nude mice were subcutaneously inoculated with human liver cancer HepG2 cells to establish human liver cancer subcutaneous transplantation tumor model.

[2] = molecular target: P-gp (Homo sapiens, UniProt P08183); assay: P-gp substrate evaluation, MDCKII-MDR1 penetration test; conditions: dog; for Papp A→B at 2 h / Papp B→A at 2 h: MDCK-MDR1
Description: (1) MDCKII-MDR1 cells were cultured in the cell culture bottle. The conditions of the incubator were 37° C., 5% of CO2, and 95% of the relative humidity. When the cell growth confluence was up to 70-90%, the cells were inoculated to the transwell.
The cell suspension was transferred to the upper compartment of the 96-well transwell, wherein each upper compartment contains 50 μL of the cell suspension. The final inoculum density was 5.45×10^5 cells/cm^2.
(1) The transwell culture plate of the MDCKII-MDRT cells was taken out from the incubator. The cell monolayer membrane was rinsed two times with the buffer solution and incubated at 37° C. for 30 min.
(2) The transport rate that the compound was transported from the top-end to the base-end was tested. 75 μL of the buffer solution contained the sample was added to each upper compartment (top-end), and 235 μL of the buffer solution was added to each lower compartment (base-end).
(3) The transport rate that the compound was transported from the base-end to the top-end was tested. 75 μL of the buffer solution was added to each upper compartment (top-end), and 235 μL of the buffer solution contained the sample was added to each lower compartment (base-end).
(6) The upper and lower transits were merged up and then incubated at 37° C. for 2 h.
(7) After the incubation was finished, 50 μL of the samples from each well of the upper compartment and the lower compartment of the transwell culture plate were respectively added to new sample tubes. 200 μL of the acetonitrile containing the internal standard (100 nM Alprazolam, 200 nM Labetalol, 200 nM caffeine and 2 μM Ketoprofen) was added to each sample tube. After the sample tubes were vortexed for 10 min, they were centrifuged at 3220 g for 30 min. 100 μL of the supernatant was taken and diluted with the same volume of the water to perform the LC-MS/MS analysis. Each sample was adopted to the three parallel incubation.
The peak area was calculated by the result of the ion chromatography. The permeability coefficient (Papp, unit: cm/s×10^−6) of the compound was calculated by the formula: […]
In the formula, “VA” refers to the volume of the solution on the acceptor (Ap→Bl was 0.235 mL, and Bl→Ap was 0.075 mL), “Area” refers to the area of the permeable membrane of the 96-well transwell (0.143 cm^2), “time” refers to the incubation time (in second), “[drug]acceptor” refers to the drug concentration of the acceptor after the incubation, and “[drug]initial, donor” refers to the initial concentration of the drug administration before the incubation.
The efflux ratio was calculated by the following formula: […]
In the formula, “Papp (B-A)” refers to the permeability coefficient from the base-end to the top-end, and the term “Papp (A-B)” refers to the permeability coefficient from the top-end to the base-end.
The recovery was calculated by the following formula: […]
In the formula, “VA” refers to the volume of the solution on the acceptor (mL), “VD” refers to the volume of the solution on the donor (mL), “[drug]acceptor” refers to the drug concentration of the acceptor after the incubation, “[drug]donor” refers to the drug concentration of the donor after the incubation, and the term “[drug]initial, donor” refers to the initial concentration of the drug administration before the incubation.

[3] = test system: human lung cancer NCI-H460-Luc2 intracranial transplantation tumor; conditions: 20 mg/kg i.p. QW×3; 11 days after grouping
Description: BALB/c nude mice were inoculated intracranially with human lung cancer NCI-H460-Luc2 cells to establish human lung cancer intracranial transplantation tumor model. […] The relative tumor inhibition rate TGI (%) was calculated based on tumor biofluorescence value and the efficacy was evaluated.

[4] = test system: mice; conditions: prior literature WO2016210175A1, CN108024974A; cited from earlier work
[5] = test system: HuPrime pancreatic cancer PA3546 subcutaneous xenograft PDX tumor; assay: PA3546 human pancreatic cancer subcutaneous PDX model; conditions: 120 mg/kg i.p. QW×3; Day 25
Description: BALB/c nude mice were subcutaneously inoculated with HuPrime® model PA3546 tumor blocks to establish human pancreatic cancer subcutaneous transplantation tumor model. […] Efficacy was evaluated according to the relative tumor inhibition rate TGI (%), and safety was evaluated according to the change in body weight and the death of animals.

[6] = Plasma stability, monkey; assay type: in vitro ADME; conditions: Monkey plasma; after 30 minutes
Description: (§1) The pH of the plasma was checked and recorded. Note: a.
(§2) The final concentration of solvent was 0.5%.
(§3) The assay is performed in duplicate.

[7] = Plasma stability, human; assay type: in vitro ADME; conditions: Human plasma; after 30 minutes; 5 μM; 37° C.
Description: as §1, §2, §3

[8] = Plasma stability, mouse; assay type: in vitro ADME; conditions: Mouse plasma; after 30 minutes
Description: as §1, §2, §3

[9] = Plasma stability, dog; conditions: Dog plasma; after 30 minutes
Description: (§4) The frozen plasma was immediately melted in a water bath of 37° C. The plasma was centrifuged at 3, 220 g for 10 minutes to remove the blood clots and the supernatant was collected into a new test tube. The pH of the plasma was checked and recorded. Note: a. Only plasma that has been melted no more than twice since arrival was used; b. Only plasma in the range of pH 7 to pH 8 was used.
(§5) 1 mM of working solutions of the test compound and the control compound mevinolin were prepared in DMSO. 1 mM of the working solution of the control compound solution in […] was prepared in acetonitrile. 4 μL of the working solution was added to 796 μL of pre-incubated plasma to achieve 5 μM of final concentration. The final concentration of solvent was 0.5%.
(§6) The aliquots of 50 μL of the standard addition plasma were added to new test tubes and incubated in the water bath of 37° C. at approximately 60 rpm for 2 hours. The assay is performed in duplicate. At the end of the two hour incubation, 300 μL of quenched solution at room temperature (acetonitrile containing internal standards (acetonitrile, 100 nM Alprazolam, 500 nM Labetalol and 2 μM ketoprofen)) was added to terminate the reaction. Samples at time 0 were prepared by adding 50 μL of standard addition plasma to the new test tubes with 300 μL of quenched solution at room temperature. The test tubes were mixed by vortex for 5 minutes. The samples in the plates were centrifuged at 3, 220×g for 30 minutes at 4° C. to precipitate the proteins. 100 μL of supernatant was transferred to a new plate. The supernatant was diluted with 100 μL of water, mixed well and analysed using LC-MS/MS.

[10] = Plasma stability, rat; conditions: Rat plasma; after 30 minutes
Description: as §4, §5
as §6, with “The aliquots of 50 μL of the standard addition plasma were added to new test tubes and incubated in the water bath of 37° C. at approximately 60 rpm for 2 hours.” left out

[11] = test system: human lung cancer NCI-H460 subcutaneous xenograft; assay: Human lung cancer NCI-H460 subcutaneous xenograft model, compounds B and C; assay type: in vivo, BALB/c nude mice
Description: BALB/c nude mice were subcutaneously inoculated with human lung cancer NCI-H460 cells to establish human lung cancer subcutaneous transplantation tumor model. […] The positive drug Irinotecan 40 mg/kg group was administered by intraperitoneal injection once every 4 days for 7 times, and observed for 4 days.

[12] = MDCK-MDR1, Recovery (%) AP-BL, verapamil 0 μM
[13] = MDCK-MDR1, Recovery (%) BL-AP, verapamil 0 μM
[14] = MDCK-MDR1, with verapamil 100 μM (in donor and acceptor buffer), Recovery (%) AP-BL, verapamil 100 μM
[15] = MDCK-MDR1, with verapamil 100 μM (in donor and acceptor buffer), Recovery (%) BL-AP, verapamil 100 μM

Sequence of P-gp (P08183 whole entry): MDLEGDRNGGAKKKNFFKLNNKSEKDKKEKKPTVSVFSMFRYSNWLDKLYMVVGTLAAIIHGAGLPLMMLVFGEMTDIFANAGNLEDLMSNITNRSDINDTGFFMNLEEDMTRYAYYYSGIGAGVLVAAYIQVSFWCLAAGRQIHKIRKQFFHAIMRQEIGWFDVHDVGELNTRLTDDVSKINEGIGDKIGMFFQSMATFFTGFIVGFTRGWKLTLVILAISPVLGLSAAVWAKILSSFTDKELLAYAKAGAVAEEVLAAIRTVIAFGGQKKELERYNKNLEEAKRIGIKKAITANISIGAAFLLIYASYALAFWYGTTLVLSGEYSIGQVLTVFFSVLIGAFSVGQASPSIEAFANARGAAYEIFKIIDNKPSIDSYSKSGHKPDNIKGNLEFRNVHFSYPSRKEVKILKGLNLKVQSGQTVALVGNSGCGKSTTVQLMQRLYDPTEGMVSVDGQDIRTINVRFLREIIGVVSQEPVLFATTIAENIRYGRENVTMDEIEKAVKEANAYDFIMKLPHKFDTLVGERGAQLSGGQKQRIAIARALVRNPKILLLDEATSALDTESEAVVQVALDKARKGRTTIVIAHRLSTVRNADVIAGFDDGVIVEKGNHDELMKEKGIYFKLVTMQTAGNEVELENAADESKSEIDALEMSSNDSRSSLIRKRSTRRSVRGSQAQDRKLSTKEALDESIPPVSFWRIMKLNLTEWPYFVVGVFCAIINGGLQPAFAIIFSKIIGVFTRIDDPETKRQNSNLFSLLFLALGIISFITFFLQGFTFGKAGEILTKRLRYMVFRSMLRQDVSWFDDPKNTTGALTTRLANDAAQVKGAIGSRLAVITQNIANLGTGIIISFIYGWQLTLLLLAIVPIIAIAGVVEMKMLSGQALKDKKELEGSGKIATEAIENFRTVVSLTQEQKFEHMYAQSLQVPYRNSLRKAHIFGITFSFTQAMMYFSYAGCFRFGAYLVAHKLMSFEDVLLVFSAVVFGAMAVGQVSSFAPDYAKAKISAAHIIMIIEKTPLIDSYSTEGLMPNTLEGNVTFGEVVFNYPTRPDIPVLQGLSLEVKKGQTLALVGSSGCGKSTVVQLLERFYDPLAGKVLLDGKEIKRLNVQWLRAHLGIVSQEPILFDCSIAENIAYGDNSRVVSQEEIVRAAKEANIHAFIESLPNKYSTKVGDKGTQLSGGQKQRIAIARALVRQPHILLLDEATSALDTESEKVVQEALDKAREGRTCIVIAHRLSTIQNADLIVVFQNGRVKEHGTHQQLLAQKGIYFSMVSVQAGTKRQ

Structure (SMILES): CNC(=O)c1cc(Oc2ccc(NC(=O)Nc3ccc(Cl)c(C(F)(F)F)c3)cc2)ccn1 [Sorafenib, reference compound]
- cure rate ([1]; 30 mg/kg (Group 2)): 20%
- relative tumor inhibition rate TGI (%) ([1]; 30 mg/kg, QD×21 Days, intragastric, Day 45): 48.11%

Structure (SMILES): COCCc1ccc(OCC(O)CNC(C)C)cc1 (centres unmarked) [Metoprolol]
- Papp A→B at 2 h [2]: 27.6 ×10⁻⁶ cm/s
- Papp B→A at 2 h [2]: 26.5 ×10⁻⁶ cm/s
- recovery at 2 h [2, 12]: 96.2%
- recovery at 2 h [2, 13]: 98.5%

Structure (SMILES): CC(=O)O[C@H]1C(=O)[C@@]2(C)[C@H]([C@H](OC(=O)c3ccccc3)[C@]3(O)C[C@H](OC(=O)[C@H](O)[C@@H](NC(=O)c4ccccc4)c4ccccc4)C(C)=C1C3(C)C)[C@]1(OC(C)=O)CO[C@@H]1C[C@@H]2O [Paclitaxel, reference compound]
- mean biofluorescence value [3]: 4184.52 E+05 photon/second

Structure (SMILES): C[C@H](OP(=O)(N1CC1)N1CC1)c1ccc([N+](=O)[O-])cc1 [TH2566]
- MTD Result [4]: 2 mg/kg

Structure (SMILES): C[C@@H](OP(=O)(N1CC1)N1CC1)c1ccc([N+](=O)[O-])cc1 [TH2565]
- MTD Result [4]: 2 mg/kg

Structure (SMILES): Cc1ccc(NC(=O)c2ccc(CN3CCN(C)CC3)cc2)cc1Nc1nccc(-c2cccnc2)n1 [Imatinib]
- Papp A→B at 2 h [2]: 1.89 ×10⁻⁶ cm/s
- Papp B→A at 2 h [2]: 30.5 ×10⁻⁶ cm/s
- recovery at 2 h [2, 12]: 79%
- recovery at 2 h [2, 13]: 63.4%
- recovery at 2 h [2, 14]: 83%
- recovery at 2 h [2, 15]: 87.6%

Structure (SMILES): Nc1ccn([C@@H]2O[C@H](CO)[C@@H](O)C2(F)F)c(=O)n1 [Gemcitabine, reference compound]
- relative tumor inhibition rate TGI (%) [5]: 45.31%

Structure (SMILES): CC(C)[N+](C)(CCOC(=O)C1c2ccccc2Oc2ccccc21)C(C)C [Propanthine, reference compound]
- Remaining percentage [6]: 54.38%
- Remaining percentage [7]: 0.07% and 3.32%
- Remaining percentage [8]: 1.98%

Structure (SMILES): COc1cc2nc(N3CCN(C(=O)c4ccco4)CC3)nc(N)c2cc1OC [prazosin]
- Papp A→B at 2 h [2]: 11 ×10⁻⁶ cm/s
- Papp B→A at 2 h [2]: 31.8 ×10⁻⁶ cm/s
- recovery at 2 h [2, 12]: 90.7%
- recovery at 2 h [2, 13]: 78.5%
- recovery at 2 h [2, 14]: 94.2%
- recovery at 2 h [2, 15]: 88.5%

Structure (SMILES): CC[C@H](C)C(=O)O[C@H]1C[C@@H](C)C=C2C=C[C@H](C)[C@H](CC[C@@H]3C[C@@H](O)CC(=O)O3)[C@H]21 [Lovastatin, reference compound]
- Remaining percentage [9]: 58.73%
- Remaining percentage [10]: 0.21% and 0.19%

Structure (SMILES): CCc1c2c(nc3ccc(OC(=O)N4CCC(N5CCCCC5)CC4)cc13)-c1cc3c(c(=O)n1C2)COC(=O)[C@]3(O)CC [Irinotecan, reference compound]
- relative tumor inhibition rate TGI (%) ([11]; 40 mg/kg, Q4D×7, i.p., day 28): 79.03%
- drug toxicity (weight loss / death) ([11]; at the tested dosage): a certain drug toxicity
